The values below come from ChEMBL document CHEMBL1137844, “Design, synthesis and structure-activity relationship of novel RXR-selective modulators” (Bioorg Med Chem Lett, 2004).

In assay [1] the target is T1, Retinoic acid receptor RXR-alpha (Homo sapiens, UniProt P19793).
T1 sequence (P19793 whole entry): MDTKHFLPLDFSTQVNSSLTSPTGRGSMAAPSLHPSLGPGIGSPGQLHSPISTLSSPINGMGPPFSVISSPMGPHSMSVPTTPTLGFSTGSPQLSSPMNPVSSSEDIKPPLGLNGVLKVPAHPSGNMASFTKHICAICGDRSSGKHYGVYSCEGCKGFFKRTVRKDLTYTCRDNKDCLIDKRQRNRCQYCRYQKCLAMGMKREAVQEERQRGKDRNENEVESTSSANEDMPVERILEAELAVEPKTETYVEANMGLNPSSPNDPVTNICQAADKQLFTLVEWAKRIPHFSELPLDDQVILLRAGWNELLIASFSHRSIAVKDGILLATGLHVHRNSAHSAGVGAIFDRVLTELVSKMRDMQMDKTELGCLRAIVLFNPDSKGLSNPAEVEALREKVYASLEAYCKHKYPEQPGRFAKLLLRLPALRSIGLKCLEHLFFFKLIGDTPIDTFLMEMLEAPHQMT
The assay is described as follows: Antagonist activity for Retinoic X receptor alpha in CV1 cells. It counts as functional, cell-based, CV-1.

The target of assay [2] is T2, Retinoic acid receptor RXR-gamma (Homo sapiens, UniProt P48443).
T2 sequence (P48443 whole entry): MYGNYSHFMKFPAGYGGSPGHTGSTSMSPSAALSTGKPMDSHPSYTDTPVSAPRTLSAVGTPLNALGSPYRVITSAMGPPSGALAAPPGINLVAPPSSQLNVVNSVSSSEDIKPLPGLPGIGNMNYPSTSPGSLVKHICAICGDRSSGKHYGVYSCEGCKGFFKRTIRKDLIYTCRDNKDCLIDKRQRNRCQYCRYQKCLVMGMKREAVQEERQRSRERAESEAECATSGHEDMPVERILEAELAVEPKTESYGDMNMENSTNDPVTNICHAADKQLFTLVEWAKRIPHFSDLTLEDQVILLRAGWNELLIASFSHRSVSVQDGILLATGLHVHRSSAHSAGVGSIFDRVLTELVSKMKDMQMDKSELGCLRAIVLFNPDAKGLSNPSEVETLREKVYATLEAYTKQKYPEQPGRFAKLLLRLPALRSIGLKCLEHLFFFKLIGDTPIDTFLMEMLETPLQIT
As to the kind of experiment: Displacement of [3H]9-cis-RA from retinoic X receptor gamma.

Assay [3] has as its target T3, Retinoic acid receptor alpha (Homo sapiens, UniProt P10276).
T3 sequence (P10276 whole entry): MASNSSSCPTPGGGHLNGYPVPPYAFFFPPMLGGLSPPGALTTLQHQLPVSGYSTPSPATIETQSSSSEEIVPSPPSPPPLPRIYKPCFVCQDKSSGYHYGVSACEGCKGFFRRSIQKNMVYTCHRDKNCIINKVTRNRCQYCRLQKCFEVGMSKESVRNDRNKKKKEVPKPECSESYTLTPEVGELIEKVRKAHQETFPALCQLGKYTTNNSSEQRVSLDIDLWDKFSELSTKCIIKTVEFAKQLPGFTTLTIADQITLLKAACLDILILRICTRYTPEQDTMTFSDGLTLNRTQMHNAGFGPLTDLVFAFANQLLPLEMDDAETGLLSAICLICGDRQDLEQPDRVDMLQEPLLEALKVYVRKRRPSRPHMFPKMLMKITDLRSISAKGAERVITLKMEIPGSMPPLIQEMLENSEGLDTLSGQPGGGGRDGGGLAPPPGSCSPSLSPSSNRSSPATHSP
As to the kind of experiment: Binding affinity against retinoic acid receptor alpha by [3H]ATRA displacement.

Assay [4] deals with T4, Retinoic acid receptor RXR-beta (Homo sapiens, UniProt P28702).
T4 sequence (P28702 whole entry): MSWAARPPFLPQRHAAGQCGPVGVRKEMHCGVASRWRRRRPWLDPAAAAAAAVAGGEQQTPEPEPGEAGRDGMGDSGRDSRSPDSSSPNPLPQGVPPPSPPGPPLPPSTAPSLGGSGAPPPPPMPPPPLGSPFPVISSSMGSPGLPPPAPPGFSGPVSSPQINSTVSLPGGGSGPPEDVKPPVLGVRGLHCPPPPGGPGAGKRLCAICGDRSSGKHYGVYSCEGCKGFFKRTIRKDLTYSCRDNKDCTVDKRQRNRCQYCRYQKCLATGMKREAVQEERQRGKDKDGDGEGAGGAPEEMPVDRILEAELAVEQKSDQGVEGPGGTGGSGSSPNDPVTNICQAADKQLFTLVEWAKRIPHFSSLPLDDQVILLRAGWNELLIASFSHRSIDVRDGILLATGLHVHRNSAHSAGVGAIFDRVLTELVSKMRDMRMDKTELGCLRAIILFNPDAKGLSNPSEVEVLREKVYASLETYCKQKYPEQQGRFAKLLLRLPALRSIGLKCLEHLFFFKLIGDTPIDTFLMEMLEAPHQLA
The assay is described as follows: Displacement of [3H]9-cis-RA from Retinoic X receptor beta.

Assay [5] deals with T1, Retinoic acid receptor RXR-alpha. The assay is described as follows: Binding affinity against Retinoic acid receptor RXR-alpha by [3H]9-cis-RA displacement.
The target is the same in assay [6]. As to the kind of experiment: Transcriptional activation in CV-1 cells expressing Retinoid X receptor alpha. It counts as cell-based.

Regarding `C/C(=C\C(=O)O)c1cc2cccc(-c3cc(C(C)C)cc(C(C)C)c3OCC(F)F)c2o1`, in assay [1], inhibition was half-maximal at 300 nM (IC50). In addition, the Ki was 500 nM in assay [2], more than 10000 nM in assay [3], 261 nM in assay [4] and 161 nM in assay [5].

For `Cc1cc2c(cc1C1(c3ccc(C(=O)O)cn3)CC1)C(C)(C)CCC2(C)C`, the Ki in assay [4] turned out to be 7.5 nM.

With `CCOc1c(-c2cccc3cc(/C(C)=C/C(=O)O)oc23)cc(C(C)C)cc1C(C)C`, the Ki in assay [3] was more than 10000 nM. A half-maximal effect in assay [6] (EC50) was put at 74 nM.

For `CCCCOc1c(-c2cccc3cc(/C(C)=C(\F)C(=O)O)oc23)cc(C(C)C)cc1C(C)C`, in assay [1], the IC50 was 11 nM. Besides, the Ki in assay [2] is 28 nM; in assay [3] it was more than 10000 nM; in assay [4] it was 64.5 nM; in assay [5], 16 nM.

`C/C(=C\C(=O)O)c1cc2cccc(-c3cc(C(C)C)cc(C(C)C)c3OCCCF)c2o1` showed an IC50 in assay [1] of 194 nM. Besides, the Ki in assay [3] is more than 10000 nM; in assay [5] it was 47 nM.

In turn, `C/C(=C\C(=O)O)c1cc2c(-c3cc(C(C)(C)C)cc(C(C)(C)C)c3OCC(F)F)cccc2s1` had an IC50 in assay [1] of 24 nM. In addition, the Ki in assay [2] is 20 nM; in assay [3], 8360 nM; in assay [4] it was 55 nM.

As to `CCCCCCCOc1c(-c2cccc3sc(/C(C)=C/C(=O)O)cc23)cc(C(C)(C)C)cc1C(C)(C)C`, the IC50 in assay [1] came out at 83 nM. Also, the Ki in assay [2] is 28 nM; in assay [3], more than 10000 nM; in assay [4] it was 12 nM; in assay [5], 5 nM.

On to `C/C(=C\C(=O)O)c1cc2cccc(-c3cc(C(C)C)cc(C(C)C)c3OCC(F)(F)F)c2o1`, for which the concentration for half-maximal inhibition (IC50) in assay [1] was 347 nM. The Ki was 334 nM in assay [2], 142 nM in assay [4] and 198 nM in assay [5].

In assay [1], `C/C(=C\C(=O)O)c1cc2c(-c3cc(C(C)(C)C)cc(C(C)(C)C)c3OCCCF)cccc2s1` showed an IC50 of 8 nM. In addition, the Ki in assay [2] was 21 nM; in assay [3], 7280 nM; in assay [4] it was 10 nM; in assay [5] it was 3 nM.

`C/C(=C\C(=O)O)c1cc2c(-c3cc(C(C)(C)C)cc(C(C)(C)C)c3OCC(F)(F)F)cccc2s1` showed an IC50 in assay [1] of 14 nM. For the same molecule, the Ki in assay [2] was 20 nM; in assay [3], more than 10000 nM; in assay [4], 10 nM; in assay [5] it was 3 nM.

As for `C/C(=C(/F)C(=O)O)c1cc2cccc(-c3cc(C(C)C)cc(C(C)C)c3OCC(F)F)c2o1`, half-maximal inhibition in assay [1] (IC50) required 22 nM. Also, the Ki in assay [2] was 49 nM; in assay [3], more than 10000 nM; in assay [4], 4 nM; in assay [5], 101 nM.

For `CCCOc1c(-c2cccc3cc(/C(C)=C/C(=O)O)oc23)cc(C(C)C)cc1C(C)C`, in assay [1], half-maximal inhibition (IC50) was put at 128 nM. The Ki in assay [3] is 8500 nM; in assay [5], 44 nM.

Turning to `CCCOc1c(-c2cccc3sc(/C(C)=C/C(=O)O)cc23)cc(C(C)C)cc1C(C)C`, the IC50 in assay [1] came to 16 nM. Further, the Ki in assay [2] stood at 20 nM; in assay [3], 6910 nM; in assay [4], 15 nM.

Regarding `CCOc1c(-c2cccc3cc(/C(C)=C/C(=O)O)sc23)cc(C(C)C)cc1C(C)C`, the Ki in assay [3] turned out to be 6020 nM; in assay [5], 271 nM. Also, the EC50 in assay [6] was 390 nM.

For `CCOc1c(-c2cccc3sc(/C(C)=C/C(=O)O)cc23)cc(C(C)C)cc1C(C)C`, the Ki was 12 nM in assay [2], more than 10000 nM in assay [3], 11 nM in assay [4] and 6 nM in assay [5]. In assay [6], the EC50 came out at 20 nM.

`C/C(=C/C=C/C(C)=C/C(=O)O)c1cc(C(C)(C)C)cc(C(C)(C)C)c1OCC(F)F`: the values for the inhibitory constant (Ki) in assay [2], in assay [3] and in assay [4] were 39 nM, more than 1000 nM and 18 nM, respectively.

Take `C/C(=C\C(=O)O)c1cc2c(-c3cc(C(C)(C)C)cc(C(C)(C)C)c3OCCC(F)F)cccc2s1`: in assay [1], the IC50 stood at 16 nM. Moreover, the Ki in assay [2] is 37 nM; in assay [3] it was more than 10000 nM; in assay [4] it was 12 nM; in assay [5], 7 nM.

`C/C(=C\C(=O)O)c1cc2c(-c3cc(C(C)(C)C)cc(C(C)(C)C)c3C)cccc2s1`: the Ki in assay [2] worked out at 54 nM; in assay [3] it was 1790 nM; in assay [4], 33 nM; in assay [5], 7 nM. Also, a half-maximal response in assay [6] (EC50) required 39 nM.
